Source: US8536210B2, “Compounds for inhibiting semicarbazide-sensitive amine oxidase (SSAO)/vascular adhesion protein-1 (VAP-1) and uses thereof for treatment and prevention of diseases” (Semmelweis Egyetem, priority 2008, dated 2013)
One block for each molecule: values may come before it.

Experiments:
[1] = target: human recombinant VAP-1 (SSAO/VAP-1 enzyme) (Homo sapiens (Human), UniProt Q16853); experiment: In vitro inhibition of SSAO activity on human recombinant VAP-1 (colorimetric, benzylamine substrate); format: biochemical; details: for IC50: recombinant SSAO/VAP-1 in CHO cell homogenate, 1 mM benzyl amine
Protocol: For determining the SSAO/VAP-1 activity, the colorimetric method described by Holt, A (Holt, A., Anal. Biochem. 244, 384, 1997) for monoamine oxidase and analogous enzymes was used. Recombinant SSAO/VAP-1 enzyme was expressed in Chinese Hamster Ovary cells (CHO). These cells and cell cultures have been described earlier (Smith, D. J. et al, J. Exp. Med. 188, 17, 1998). The cell homogenate was prepared as follows: a suspension was made of approximately 3.6×10^8 cells in 25 ml lysation buffer (150 mM NaCl, 10 mM Tris-base pH 7.2, 1.5 mM MgCl2, 1% NP40), that was stirred for 1 night and incubated at 4° C. The homogenate was centrifugated (18000 g). The supernatant was used directly afterwards for the measurement. SSAO/VAP-1 activity measurement was carried out as follows on 96 precisely microtitrated plates, a given amount of inhibitor was added to each. The amount of the inhibitors varied among the measurements, the final concentration being between 1 nM and 50 μM in general, in 20 μl aqueous total volume for all cases. Then 0.2 M potassium phosphate buffer (pH=7.6) was added, to obtain a total volume of 200 μl 50 μl freshly prepared chromogen solution was given, which contains 1 mM of vanillic acid, 500 μM 4-aminoantipyrin, 8 U/ml horse radish peroxidase, and such an amount of SSAO/VAP-1 containing CHO cell homogenate that causes a 0.6 A-490 per h change, the latter being in the linear coherence scope of the method. The plates were incubated for 30 min at 37° C. and the background absorbance was measured at 490 nm by a Wallac Victor II apparatus. For starting the enzyme reaction, 20 μl 10 mM benzyl amine solution was added, the final concentration of which was therefore 1 mM. The plates were reincubated at 37° C. for 1 h. The increase in the absorbance showing the SSAO/VAP-1 activity was measured at 490 nm. The inhibition was calculated in the % of the control absorbance corrected with the background absorbance, IC50 values were calculated using GraphPad Prism.

[2] = test system: carrageenan-induced rat paw edema; experiment: Inhibition of carrageenan-induced rat paw edema; format: in vivo
Description: Carrageenan-induced rat paw edema has been extensively used in the evaluation of anti-inflammatory effects of various agents and it is useful in assessing the efficacy of compounds to alleviate acute inflammation (Whiteley P E, Dalrymple S A (1998) Models of inflammation: carrageenan-induced paw edema in the rat, in Current Protocols in Pharmacology (Enna S J, Williams M, Ferkany J W, Kenakin T, Porsolt R E, Sullivan J P eds) pp 5.4.1-5.4.3, John Wiley & Sons, New York.). Edema in the paws was induced by injecting 0.1 ml of a 1% solution of carrageenan intraplantary. […] […] Inhibitory effects are expressed in % values.

[3] = test system: acetic acid induced writhing syndrome; experiment: Inhibition of acetic acid induced writhing on mice; format: in vivo; details: 20 minutes prior to acetic acid
Protocol: The method described by Van der Wende (Van der Vende C, Margolin S, Fed. Proc., 15, 494, 1956) with the modifications of Witkin et al. (Witkin L B et al, J. Pharm. Exp. Ther., 133, 400, 1961) was applied. 0.2 ml of a 0.6% acetic acid solution was injected intraperitoneally, causing a typical writhing syndrome in 90% of the animals. Compounds of the invention were administered subcutaneously, 20 minutes prior to acetic acid exposure. Antianalgetic effect was determined by the formula, which is shown below, and is expressed in % values. (number of writhings in treatment group (5′)/number of writhings in control group (5′))×100

human recombinant VAP-1 (SSAO/VAP-1 enzyme), sequence (Q16853 whole entry): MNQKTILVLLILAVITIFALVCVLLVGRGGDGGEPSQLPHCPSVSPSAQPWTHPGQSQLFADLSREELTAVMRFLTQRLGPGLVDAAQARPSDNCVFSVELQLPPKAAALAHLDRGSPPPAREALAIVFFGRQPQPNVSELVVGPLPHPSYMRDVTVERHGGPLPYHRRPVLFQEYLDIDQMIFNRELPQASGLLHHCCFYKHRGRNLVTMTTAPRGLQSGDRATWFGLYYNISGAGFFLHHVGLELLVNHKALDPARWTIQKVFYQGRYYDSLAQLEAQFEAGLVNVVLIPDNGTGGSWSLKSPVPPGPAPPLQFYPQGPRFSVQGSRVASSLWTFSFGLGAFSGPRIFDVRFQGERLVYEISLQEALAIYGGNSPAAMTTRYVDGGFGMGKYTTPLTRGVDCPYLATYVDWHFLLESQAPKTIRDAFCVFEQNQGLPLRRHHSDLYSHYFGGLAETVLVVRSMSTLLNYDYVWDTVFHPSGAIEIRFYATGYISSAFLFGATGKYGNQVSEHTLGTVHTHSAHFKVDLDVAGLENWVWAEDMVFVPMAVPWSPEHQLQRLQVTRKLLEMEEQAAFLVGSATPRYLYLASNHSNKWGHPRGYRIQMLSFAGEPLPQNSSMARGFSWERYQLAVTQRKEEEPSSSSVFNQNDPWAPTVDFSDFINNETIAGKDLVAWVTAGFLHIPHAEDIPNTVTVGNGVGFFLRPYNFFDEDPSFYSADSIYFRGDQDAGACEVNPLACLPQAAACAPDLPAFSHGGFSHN

SMILES: ON=Cc1c(O)ccc2c1OCO2 [Compound 6, 5-Hydroxy-1,3-benzodioxole-4-carbaldehyde oxime]
- IC50 [1]: 4.3 µM

SMILES: ON=Cc1c(Br)ccc2c1OCO2 [Compound 9, 5-Bromo-1,3-benzodioxole-4-carbaldehyde oxime]
- Inhibition of rat paw edema in % ([2]; 7.5 mg/kg s.c., 60 min): 63 ± 7 %
- Inhibition of rat paw edema in % ([2]; 7.5 mg/kg s.c., 120 min): 62 ± 6 %
- Inhibition of rat paw edema in % ([2]; 7.5 mg/kg s.c., 180 min): 66 ± 5 %
- Inhibition of rat paw edema in % ([2]; 15 mg/kg s.c., 60 min): 53 ± 5 %
- Inhibition of rat paw edema in % ([2]; 15 mg/kg s.c., 120 min): 52 ± 3 %
- Inhibition of rat paw edema in % ([2]; 15 mg/kg s.c., 180 min): 66 ± 7 %
- Inhibition of rat paw edema in % ([2]; 30 mg/kg p.o., 60 min): 0%
- Inhibition of rat paw edema in % ([2]; 30 mg/kg p.o., 120 min): 5 ± 1%
- Inhibition of rat paw edema in % ([2]; 30 mg/kg p.o., 180 min): 0%
- Inhibition of rat paw edema in % ([2]; 30 mg/kg s.c., 60 min): 54 ± 6 %
- Inhibition of rat paw edema in % ([2]; 30 mg/kg s.c., 120 min): 40 ± 5 %
- Inhibition of rat paw edema in % ([2]; 30 mg/kg s.c., 180 min): 50 ± 5 %
- Inhibition of writhing syndrome in % ([3]; 15 mg/kg s.c.): 84 ± 8 %
- Inhibition of writhing syndrome in % ([3]; 30 mg/kg s.c.): 80 ± 7 %
- IC50 [1]: 14.9 µM

SMILES: CCOc1c(C=NO)c(=O)n(C)c(=O)n1C [Compound 16, 6-Ethoxy-1,3-dimethyl-2,4-dioxo-1,2,3,4-tetrahydropyrimidine-5-carbaldehyde oxime]
- Inhibition of rat paw edema in % ([2]; 30 mg/kg s.c., 60 min): 8 ± 1%
- Inhibition of rat paw edema in % ([2]; 30 mg/kg s.c., 120 min): 19 ± 2%
- Inhibition of rat paw edema in % ([2]; 30 mg/kg s.c., 180 min): 31 ± 4%
- Inhibition of writhing syndrome in % ([3]; 15 mg/kg s.c.): 86 ± 7 %
- Inhibition of writhing syndrome in % ([3]; 30 mg/kg s.c.): 96 ± 6 %

SMILES: COc1c(C=NO)c(=O)n(C)c(=O)n1C [Compound 17, 6-Methoxy-1,3-dimethyl-2,4-dioxo-1,2,3,4-tetrahydropyrimidine-5-carbaldehyde oxime]
- IC50 [1]: 30 µM

SMILES: CCCOc1c(C=NO)c(=O)n(C)c(=O)n1C [Compound 18, 1,3-Dimethyl-2,4-dioxo-6-propoxy-1,2,3,4-tetrahydropyrimidine-5-carbaldehyde oxime]
- IC50 [1]: 18 µM

SMILES: CCOc1c(C=NOC)c(=O)n(C)c(=O)n1C [Compound 19, 6-Ethoxy-1,3-dimethyl-2,4-dioxo-1,2,3,4-tetrahydropyrimidine-5-carbaldehyde O-methyloxime]
- IC50 [1]: 29 µM

SMILES: CCCSc1c(C=NO)c(=O)n(C)c(=O)n1C [Compound 21, 1,3-Dimethyl-2,4-dioxo-6-(propylthio)-1,2,3,4-tetrahydropyrimidine-5-carbaldehyde oxime]
- IC50 [1]: 58 µM

SMILES: Cn1c(Sc2ccccc2)c(C=NO)c(=O)n(C)c1=O [Compound 24, 1,3-Dimethyl-2,4-dioxo-6-(phenylthio)-1,2,3,4-tetrahydropyrimidine-5-carbaldehyde oxime]
- IC50 [1]: 106 µM

SMILES: CCSc1c(C=NOC)c(=O)n(C)c(=O)n1C [Compound 25, 6-(Ethylthio)-1,3-dimethyl-2,4-dioxo-1,2,3,4-tetrahydropyrimidine-5-carbaldehyde O-methyloxime]
- IC50 [1]: 113 µM

SMILES: C=CCN(C)c1c(C=NO)c(=O)n(C)c(=O)n1C [Compound 27, 6-[Allyl(methyl)amino]-1,3-dimethyl-2,4-dioxo-1,2,3,4-tetrahydropyrimidine-5-carbaldehyde oxime]
- IC50 [1]: 41 µM

SMILES: Cn1ncc(N2CCCCC2)c(/C=N/O)c1=O [Compound 29, E-2-Methyl-3-oxo-5-piperidino-2,3-dihydropyridazine-4-carbaldehyde oxime]
- IC50 [1]: 240 µM

SMILES: COc1ccc(Cn2ncc(N3CCOCC3)c(/C=N/O)c2=O)cc1 [Compound 32, E-2-(4-Methoxybenzyl)-5-morpholino-3-oxo-2,3-dihydropyridazine-4-carbaldehyde oxime]
- IC50 [1]: 263 µM

SMILES: Cn1nc2c(c(C=NO)c1=O)N1CCCC1CO2 (centres unmarked) [Compound 35, 3-Methyl-2-oxo-2,3,6a,7,8,9-hexahydro-6H-pyridazino[3,4-b]pyrrolo[1,2-d][1,4]oxazine-1-carbaldehyde oxime]
- inhibition at 500 µM [1]: 55%

SMILES: ON=CCCc1nc(-c2ccccc2)c(-c2ccccc2)o1 [Compound 40, 3-(4,5-Diphenyl-1,3-oxazol-2-yl)propanal oxime]
- IC50 [1]: 3.5 µM

SMILES: COc1ccc2c(c1)c(CC(=O)O)c(C)n2C(=O)c1ccc(Cl)cc1 [Indomethacin, reference compound]
- Inhibition of rat paw edema in % ([2]; 2.5 mg/kg p.o., 60 min): 32 ± 2 %
- Inhibition of rat paw edema in % ([2]; 2.5 mg/kg p.o., 120 min): 51 ± 4 %
- Inhibition of rat paw edema in % ([2]; 2.5 mg/kg p.o., 180 min): 53 ± 5 %

Now from value to molecule, other results behind:

- melting point: 110 °C
- IC50 [1]: 102 µM
SMILES: COc1cccc(C=NO)c1C [Compound 1, 3-Methoxy-2-methylbenzaldehyde oxime]

- inhibition at 50 µM ([1]; at 50 μM): 32%
SMILES: ON=Cc1cccc2cccc(N3CCCC3)c12 [Compound 5, 8-Pyrrolidino-1-naphthaldehyde oxime]

- IC50 [1]: 40 µM
SMILES: CCOc1ccc2c(c1C=NO)OCO2 [Compound 7, 5-Ethoxy-1,3-benzodioxole-4-carbaldehyde oxime]

- IC50 [1]: 95 µM
SMILES: C=CCOc1ccc2c(c1C=NO)OCO2 [Compound 8, 5-(Allyloxy)-1,3-benzodioxole-4-carbaldehyde oxime]

- inhibition at 500 µM [1]: 35%
SMILES: CC1Oc2ccc(Br)c(C=NO)c2O1 (centres unmarked) [Compound 10, 5-Bromo-2-methyl-1,3-benzodioxole-4-carbaldehyde oxime]

- IC50 [1]: 180 µM
SMILES: ON=Cc1ccccc1-c1ccc2c(c1C=NO)OCO2 [Compound 12, 5-{2-[(hydroxyimino)methyl]phenyl}-1,3-benzodioxole-4-carbaldehyde oxime]

- IC50 [1]: 48 µM
SMILES: CSc1c(C=NO)c(=O)n(C)c(=O)n1C [Compound 22, 1,3-Dimethyl-6-(methylthio)-2,4-dioxo-1,2,3,4-tetrahydropyrimidine-5-carbaldehyde oxime]
- Inhibition of rat paw edema in % ([2]; 7.5 mg/kg s.c., 60 min): 15 ± 2%
- Inhibition of rat paw edema in % ([2]; 7.5 mg/kg s.c., 120 min): 55 ± 5 %
- Inhibition of rat paw edema in % ([2]; 7.5 mg/kg s.c., 180 min): 60 ± 5 %
- Inhibition of rat paw edema in % ([2]; 15 mg/kg s.c., 60 min): 60 ± 6 %
- Inhibition of rat paw edema in % ([2]; 15 mg/kg s.c., 120 min): 63 ± 7 %
- Inhibition of rat paw edema in % ([2]; 15 mg/kg s.c., 180 min): 65 ± 7 %
- Inhibition of rat paw edema in % ([2]; 30 mg/kg p.o., 60 min): 0%
- Inhibition of rat paw edema in % ([2]; 30 mg/kg p.o., 120 min): 21 ± 2%
- Inhibition of rat paw edema in % ([2]; 30 mg/kg p.o., 180 min): 21 ± 2%
- Inhibition of rat paw edema in % ([2]; 30 mg/kg s.c., 60 min): 58 ± 7 %
- Inhibition of rat paw edema in % ([2]; 30 mg/kg s.c., 120 min): 54 ± 5 %
- Inhibition of rat paw edema in % ([2]; 30 mg/kg s.c., 180 min): 72 ± 8 %
- Inhibition of writhing syndrome in % ([3]; 5 mg/kg s.c.): 70 ± 5 %
- Inhibition of writhing syndrome in % ([3]; 15 mg/kg s.c.): 100%

- IC50 [1]: 111 µM
SMILES: CCSc1c(C=NO)c(=O)n(C)c(=O)n1C [Compound 23, 6-(Ethylthio)-1,3-dimethyl-2,4-dioxo-1,2,3,4-tetrahydropyrimidine-5-carbaldehyde oxime]

- inhibition at 500 µM [1]: 31%
SMILES: Cn1ncc(N2CCCC2)c(-c2ccccc2C=NO)c1=O [Compound 38, 2-(2-Methyl-3-oxo-5-pyrrolidino-2,3-dihydropyridazin-4-yl)benzaldehyde oxime]
